Molecular target: T1, N-terminal HiBiT tagged BCL6 (Homo sapiens, UniProt P41182)
T1 construct: expressed in transfected cells; host or cells: HT1080 (ATCC CCL-121), stably transduced with lentivirus pLV-UBC-N-HiBiT-BCL6-PGK-puro
Assay: HiBiT based degradation assay
Type: cell-based
Details: HT1080 cells expressing N-terminal HiBiT tagged BCL6, 5 hours of incubation; for Ymin (5 hr): BCL6 degradation normalized with DMSO control; for DC50: four-parameter logistic model, read-out: EC50 (5 hr)
Outline: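 Degradation measured by luminescence from the Nano-Glo HiBiT lytic reagent (15 min, room temperature), normalized to DMSO controls and fitted to a four-parameter curve.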

Row | SMILES | Ymin (5 hr) | DC50 [µM]
1 | CNC(=O)COc1cc2cc(Nc3nc(N4CC5(CC(N(C)c6ccc7c(C8CCC(=O)NC8=O)nn(C)c7c6)C5)C4)ncc3Cl)cnc2n(C(C)C)c1=O (centres unmarked) [Compound 207, 2-[[6-[[5-chloro-2-[6-[[3-(2,6-dioxo-3-piperidyl)-1-methyl-indazol-6-yl]-methyl-amino]-2-azaspiro[3.3]heptan-2-yl]pyrimidin-4-yl]amino]-1-isopropyl-2-oxo-1,8-naphthyridin-3-yl]oxy]-N-methyl-acetamide] | +++ (30% ≤ Ymin < 50%) | < 0.01
2 | CNC(=O)COc1cc2cc(Nc3nc(N4CCN(C(=O)N5CCN(c6cccc7c(C8CCC(=O)NC8=O)nn(C)c67)CC5)CC4)ncc3Cl)cnc2n(C(C)C)c1=O (centres unmarked) [Compound 223, 2-[[6-[[5-chloro-2-[4-[4-[3-(2,6-dioxo-3-piperidyl)-1-methyl-indazol-7-yl]piperazine-1-carbonyl]piperazin-1-yl]pyrimidin-4-yl]amino]-1-isopropyl-2-oxo-1,8-naphthyridin-3-yl]oxy]-N-methyl-acetamide] | ++++ (Ymin < 30%) | < 0.01
3 | CNC(=O)COc1cc2cc(Nc3nc(N4CCC(O)(CN5CCN(c6cccc7c(C8CCC(=O)NC8=O)nn(C)c67)CC5)CC4)ncc3Cl)cnc2n(C(C)C)c1=O (centres unmarked) [Compound 178, 2-[[6-[[5-chloro-2-[4-[[4-[3-(2,6-dioxo-3-piperidyl)-1-methyl-indazol-7-yl]piperazin-1-yl]methyl]-4-hydroxy-1-piperidyl]pyrimidin-4-yl]amino]-1-isopropyl-2-oxo-1,8-naphthyridin-3-yl]oxy]-N-methyl-acetamide] | +++ (30% ≤ Ymin < 50%) | < 0.01
4 | CNC(=O)COc1cc2cc(Nc3nc(N4CC5(CC[C@@H](Oc6ccc7c(C8CCC(=O)NC8=O)nn(C)c7c6)[C@@H](C)C5)C4)ncc3Cl)cnc2n(C(C)C)c1=O (relative stereo) [Compound 185b, 2-[[6-[[5-chloro-2-[(6S,7R)-7-[3-(2,6-dioxo-3-piperidyl)-1-methyl-indazol-6-yl]oxy-6-methyl-2-azaspiro[3.5]nonan-2-yl]pyrimidin-4-yl]amino]-1-isopropyl-2-oxo-1,8-naphthyridin-3-yl]oxy]-N-methyl-acetamide] | ++++ (Ymin < 30%) | < 0.01
5 | CNC(=O)COc1cc2cc(Nc3nc(N4CC5(CC[C@@H](Nc6cccc7c(C8CCC(=O)NC8=O)nn(C)c67)[C@@H](C)C5)C4)ncc3Cl)cnc2n(C)c1=O (relative stereo) [Compound 159b, 2-((6-((5-chloro-2-((6S,7R)-7-((3-(2,6-dioxopiperidin-3-yl)-1-methyl-1H-indazol-7-yl)amino)-6-methyl-2-azaspiro[3.5]nonan-2-yl)pyrimidin-4-yl)amino)-1-methyl-2-oxo-1,2-dihydro-1,8-naphthyridin-3-yl)oxy)-N-methylacetamide] | +++ (30% ≤ Ymin < 50%) | < 0.01
6 | CNC(=O)COc1cc2cc(Nc3nc(N4CCN(CC5CCN(c6cccc7c(C8CCC(=O)NC8=O)nn(C)c67)CC5)[C@@H](CO)C4)ncc3Cl)cnc2n(C(C)C)c1=O (stereo partly drawn) [Compound 146b, 2-((6-((5-chloro-2-((3R)-4-((1-(3-(2,6-dioxopiperidin-3-yl)-1-methyl-1H-indazol-7-yl)piperidin-4-yl)methyl)-3-(hydroxymethyl)piperazin-1-yl)pyrimidin-4-yl)amino)-1-isopropyl-2-oxo-1,2-dihydro-1,8-naphthyridin-3-yl)oxy)-N-methylacetamide] | ++++ (Ymin < 30%) | 0.01 to 0.1
7 | CNC(=O)COc1cc2cc(Nc3nc(N4CCC(Oc5cccc6c(C7CCC(=O)NC7=O)nn(C)c56)CC4)ncc3Cl)cnc2n(C)c1=O (centres unmarked) [Compound 148, 2-((6-((5-chloro-2-(4-((3-(2,6-dioxopiperidin-3-yl)-1-methyl-1H-indazol-7-yl)oxy)piperidin-1-yl)pyrimidin-4-yl)amino)-1-methyl-2-oxo-1,2-dihydro-1,8-naphthyridin-3-yl)oxy)-N-methylacetamide] | +++ (30% ≤ Ymin < 50%) | < 0.01
8 | CNC(=O)COc1cc2cc(Nc3nc(N4CCC(CN5CCN(c6cccc7c(C8CCC(=O)NC8=O)nn(C)c67)C[C@@H]5CO)CC4)ncc3Cl)cnc2n(C(C)C)c1=O (stereo partly drawn) [Compound 231b, 2-[[6-[[5-chloro-2-[4-[[(2R)-4-[3-(2,6-dioxo-3-piperidyl)-1-methyl-indazol-7-yl]-2-(hydroxymethyl)piperazin-1-yl]methyl]-1-piperidyl]pyrimidin-4-yl]amino]-1-isopropyl-2-oxo-1,8-naphthyridin-3-yl]oxy]-N-methyl-acetamide] | ++++ (Ymin < 30%) | < 0.01
9 | CNC(=O)COc1cc2cc(Nc3nc(N4CC[C@@H](CNc5cccc6c(C7CCC(=O)NC7=O)nn(C)c56)C4)ncc3Cl)cnc2n(C)c1=O (stereo partly drawn) [Compound 122b, 2-((6-((5-chloro-2-((3S)-3-(((3-(2,6-dioxopiperidin-3-yl)-1-methyl-1H-indazol-7-yl)amino)methyl)pyrrolidin-1-yl)pyrimidin-4-yl)amino)-1-methyl-2-oxo-1,2-dihydro-1,8-naphthyridin-3-yl)oxy)-N-methylacetamide] | +++ (30% ≤ Ymin < 50%) | 0.01 to 0.1
10 | CNC(=O)COc1cc2cc(Nc3nc(N4CC5(CCC(Oc6ccc7c(C8CCC(=O)NC8=O)nn(C)c7c6)CC5)C4)ncc3Cl)cnc2n(C)c1=O (centres unmarked) [Compound 144, 2-((6-((5-chloro-2-(7-((3-(2,6-dioxopiperidin-3-yl)-1-methyl-1H-indazol-6-yl)oxy)-2-azaspiro[3.5]nonan-2-yl)pyrimidin-4-yl)amino)-1-methyl-2-oxo-1,2-dihydro-1,8-naphthyridin-3-yl)oxy)-N-methylacetamide] | ++++ (Ymin < 30%) | < 0.01
11 | CNC(=O)COc1cc2cc(Nc3nc(N4CCC(CN5CCN(c6ccc7c(C8CCC(=O)NC8=O)nn(C)c7c6)CC5(C)C)CC4)ncc3Cl)cnc2n(C(C)C)c1=O (centres unmarked) [Compound 196, 2-((6-((5-chloro-2-(4-((4-(3-(2,6-dioxopiperidin-3-yl)-1-methyl-1H-indazol-6-yl)-2,2-dimethylpiperazin-1-yl)methyl)piperidin-1-yl)pyrimidin-4-yl)amino)-1-isopropyl-2-oxo-1,2-dihydro-1,8-naphthyridin-3-yl)oxy)-N-methylacetamide] | +++ (30% ≤ Ymin < 50%) | < 0.01
12 | CNC(=O)COc1cc2cc(Nc3nc(N4CCC(CN5CCC(c6ccc7c(C8CCC(=O)NC8=O)nn(C)c7c6)CC5)CC4)ncc3Cl)cnc2n(C(C)C)c1=O (centres unmarked) [Compound 212, 2-((6-((5-chloro-2-(4-((4-(3-(2,6-dioxopiperidin-3-yl)-1-methyl-1H-indazol-6-yl)piperidin-1-yl)methyl)piperidin-1-yl)pyrimidin-4-yl)amino)-1-isopropyl-2-oxo-1,2-dihydro-1,8-naphthyridin-3-yl)oxy)-N-methylacetamide] | ++++ (Ymin < 30%) | < 0.01
13 | CNC(=O)COc1cc2cc(Nc3nc(N4CCC5(CC4)CC(N4CCN(c6cccc7c(C8CCC(=O)NC8=O)nn(C)c67)CC4)C5)ncc3Cl)cnc2n(C(C)C)c1=O (centres unmarked) [Compound 230, 2-[[6-[[5-chloro-2-[2-[4-[3-(2,6-dioxo-3-piperidyl)-1-methyl-indazol-7-yl]piperazin-1-yl]-7-azaspiro [3.5]nonan-7-yl]pyrimidin-4-yl]amino]-1-isopropyl-2-oxo-1,8-naphthyridin-3-yl]oxy]-N-methyl-acetamide] | +++ (30% ≤ Ymin < 50%) | 0.01 to 0.1
